Source: PMC7411887, “New Paracyclophanylthiazoles with Anti-Leukemia Activity: Design, Synthesis, Molecular Docking, and Mechanistic Studies” (Molecules, 2020)

What was measured:
[1] = tested on: SR cancer cell line; assay: Mitochondrial membrane potential assay; format: cell-based, human
[2] = tested on: caspase-3; assay: Caspase-3 ELISA on leukemia SR cell line; format: cell-based, human; details: for Caspase 3 Conc: ± SD
Protocol: Since caspase-3 is important for spreading the apoptotic signal after exposure to antimitotic compounds [38], the effect of compound 3a on the caspase-3 activated enzyme was evaluated using ELISA and replicated three times. The reference compound and 3a were incubated for 30 min at room temperature in the dark on the leukemia SR cell line. […]
color. Add 50 μL of Stop solution into each well and mix thoroughly. The color changes […]
9. Read the O.D. absorbance at 450 nm in a micro-plate reader immediately after adding the
Caspase assay is performed according to the following procedures:
1. Allowing all reagents to reach room temperature before use. Gently mix all liquid reagents prior to use (Note: A standard curve must be run with each assay).
2. Determine the number of 8-well strips needed for the assay. Insert these in the frame(s) for current use. (Re-bag extra strips and frame. Store these in the refrigerator for future […]
3. Add 100 μL of the Standard Diluent Buffer to the zero standard wells. Well(s) reserved for chromogen blank should be left empty.
4. Add 100 μL of standards and controls or diluted samples to the appropriate microtiter wells. The sample dilution chosen should be optimized for each experimental system.
Tap gently on side of plate to mix.
5. Cover wells with plate cover and incubate for 2 hours at room temperature.
6. Thoroughly aspirate or decant solution from wells and discard the liquid. Wash wells 4 times. See Directions for Washing.
7. Pipette 100 μL of Caspase-3 (Active) Detection Antibody solution into each well except the chromogen blank(s). Tap gently on the side of the plate to mix.
8. Cover plate with plate cover and incubate for 1 h at room temperature.
9. Thoroughly aspirate or decant solution from wells and discard the liquid.
10. Wash wells 4 times. See Directions for Washing.
11. Add 100 μL Anti-Rabbit IgG HRP Working Solution to each well except the chromogen blank(s). Prepare the working dilution as described in Preparing IgG HRP.
12. Cover wells with the plate cover and incubate for 30 minutes at room temperature.
13. Thoroughly aspirate or decant solution from wells and discard the liquid. Wash wells 4
14. Add 100 μL of Stabilized Chromogen to each well. The liquid in the wells will begin to
15. Incubate for 30 min at room temperature and in the dark. […]
with aluminum foil or metalized mylar. The incubation time for chromogen substrate is often determined by the microtiter plate reader used. Many plate readers have the capacity to record a maximum optical density (O.D.) of 2.0. The O.D. values should be monitored and the substrate reaction stopped before the O.D. of the positive wells exceeds the limits of the instrument. The O.D. values at 450 nm can only be read after the Stop Solution has been added to each well. If using a reader that records only to 2.0 O.D., […]
16. Add 100 μL of Stop Solution to each well. Tap side of plate gently to mix. The solution in the wells should change from blue to yellow.
17. Read the absorbance of each well at 450 nm having blanked the plate reader against a chromogen blank composed of 100 μL each of Stabilized Chromogen and Stop Solution.
Read the plate within 2 hours after adding the Stop Solution.
18. Use a curve fitting software to generate the standard curve. A four-parameter algorithm provides the best standard curve fit.
19. Read the concentrations for unknown samples and controls from the standard curve.
Multiply value(s) obtained for sample(s) by the appropriate dilution factor to correct for the dilution in step 3. […]

Structure (SMILES)	mitochondrial membrane potential % Live cells [1]	mitochondrial membrane potential ΔΨm % Apoptic cells [1]	shift in fluorescence (Δψmt) compared with control cells [1]	level of active caspase-3 [2]	Caspase 3 Conc [2]	Caspase 3 Fold Change ([2]; relative to control)
COc1cc2c(c(OC)c1OC)-c1ccc(OC)c(=O)cc1[C@@H](NC(C)=O)CC2 [Colchicine, colchicine, reference compound]	65.04%	34.96%	significant results	428.9 ng/mL	428.9 ± 5.47 pg/mL	
COC(=O)C=C1SC(=NNC(=O)c2cc3ccc2CCc2ccc(cc2)CC3)N(c2ccccc2)C1=O [Compound 3a]	68.8%	31.2%	non-significant shift	471.2 ng/mL	471.2 ± 6.11 pg/mL	8.84 fold
